Format in all cases: cell-based
The target of data set [1] is T1, Homeobox protein Meis1 (Homo sapiens) (UniProt O00470).
T1 sequence (whole entry): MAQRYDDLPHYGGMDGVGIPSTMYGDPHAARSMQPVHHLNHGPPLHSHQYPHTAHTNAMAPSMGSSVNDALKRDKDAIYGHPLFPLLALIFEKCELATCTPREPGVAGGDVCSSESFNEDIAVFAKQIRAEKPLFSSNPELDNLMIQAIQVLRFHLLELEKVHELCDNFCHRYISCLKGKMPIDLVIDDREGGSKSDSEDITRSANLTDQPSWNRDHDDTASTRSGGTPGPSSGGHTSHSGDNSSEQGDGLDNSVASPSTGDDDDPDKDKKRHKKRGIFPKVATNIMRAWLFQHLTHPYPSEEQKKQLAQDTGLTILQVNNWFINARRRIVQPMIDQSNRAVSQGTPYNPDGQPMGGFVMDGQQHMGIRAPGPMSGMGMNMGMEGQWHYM
The data set is described as follows: Inhibition of MEIS1 (unknown origin) expressed in HEK293T cells co-expressing MEIS-Luc-pGL2 assessed as luciferase activity at 10 uM incubated for 48 hrs by luciferase reporter assay related to protein content. Also on record: scale not given: the % may be the effect or the level left. For orientation: Reporter assays use an easily measured gene product as a stand-in for the process of interest.

The target in data set [2] is T1, Homeobox protein Meis1 (Homo sapiens). The data set is described as follows: Inhibition of MEIS1 (unknown origin) expressed in HEK293T cells co-expressing MEIS-Luc-pGL2 assessed as luciferase activity at 10 uM incubated for 48 hrs by luciferase reporter assay related to […] control. Also on record: scale not given: the % may be the effect or the level left.

Data set [3] shares this target. The data set is described as follows: Inhibition of MEIS1 (unknown origin) expressed in HEK293T cells co-expressing MEIS-Luc-pGL2 assessed as downregulation of Meis1 gene expression measuring mRNA level at 10 uM incubated for 2 days by RT-qPCR analysis. The arrangement: scale not given: the % may be the effect or the level left. The following applies: time 2.0 day.

The target is the same in data set [4]. In words: Inhibition of MEIS1 (unknown origin) expressed in HEK293T cells co-expressing MEIS-Luc-pGL2 assessed as downregulation of p21 gene expression by measuring mRNA level at 10 uM incubated for 2 days by RT-qPCR analysis. The arrangement: scale not given: the % may be the effect or the level left. As to conditions: time 2.0 day. For orientation: Quantitative PCR measures a nucleic acid by following its amplification.

The nature of data set [5]: Cytotoxicity against HDF assessed as cell viability at 10 uM incubated for 72 hrs by MTS assay. The following applies: human, HDF (NHDF) cells, read-out: Activity. (In general: Tetrazolium dyes change colour on reduction, which living cells bring about.)
The target of data set [6] is T1, Homeobox protein Meis1 (Homo sapiens). The data set is described as follows: Inhibition of MEIS1 (unknown origin) expressed in HEK293T cells co-expressing MEIS-Luc-pGL2 assessed as downregulation of Hif-Ialpha gene expression measuring mRNA level at 10 uM incubated for 2 days by RT-qPCR analysis. The following applies: time 2.0 day.

Drawing on ChEMBL document CHEMBL4828764, “Lead Optimization and Structure-Activity Relationship Studies on Myeloid Ecotropic Viral Integration Site 1 Inhibitor” (J Med Chem, 2021), this text covers Activity and viability for 40 compounds.

Activity calls are given as the source filed them. The rule behind the calls is not given here.

For `Cc1cccc(NC(=O)c2ccc(OCC(=O)NCc3cccc(Cl)c3Cl)cc2)c1C`, the Activity in data set [1] was 48%; in data set [2] it was 161%.
For `COc1ccc(NC(=O)c2ccc(OCC(=O)NCc3ccc(Cl)cc3)cc2)cc1OC`, in that order: 56% and 45%.
Turning to `COc1ccc(NC(=O)c2ccc(OCC(=O)NCc3ccccc3Cl)cc2)cc1OC`, the Activity worked out at 80% in data set [1] and 82% in data set [2].
Turning to `CCc1cccc(NC(=O)c2ccc(OCC(=O)NCc3ccccc3Cl)cc2)c1`, the Activity was determined as 42% in data set [1] and 41% in data set [2].
As for `Cc1cccc(NC(=O)c2ccc(OCC(=O)NCc3ccccc3)cc2)c1C`, the Activity in data set [1] is 66%; in data set [2], 69%; in data set [3], 12%; in data set [4], 17.8%.
For `COc1ccc(CNC(=O)COc2ccc(C(=O)Nc3ccc(OC)c(OC)c3)cc2)cc1`, the Activity was determined as 63% in data set [1] and 70% in data set [2].
Turning to `COc1ccc(CNC(=O)COc2ccc(C(=O)Nc3ccccc3)cc2)cc1`, the Activity in data set [1] and in data set [2] was 43% in each case.
Regarding `COc1ccc(CNC(=O)COc2ccc(C(=O)Nc3cccc(C)c3C)cc2)cc1`, the viability at 72 h, 10 µM in data set [5] is 86.3%. Moreover, the Activity in data set [1] came to 50.6%; in data set [2], 48%; in data set [3], 14.3%; in data set [4], 15.7%. The result in data set [6] was Active.
Take `O=C(COc1ccc(C(=O)Nc2cccc(C(F)(F)F)c2)cc1)NCc1ccccc1Cl`: the results for the Activity in data set [1] and in data set [2] were 64% and 57%, respectively.
Consider `COc1ccc(CNC(=O)COc2ccc(C(=O)Nc3cccc(C(F)(F)F)c3)cc2)cc1`, for which the viability at 72 h, 10 µM in data set [5] stood at 76%. The Activity in data set [1] amounted to 1%; in data set [2], 1%; in data set [3], 15.1%; in data set [4] it was 49.5%. Further, the outcome in data set [6] was Active.
Regarding `COc1ccc(CNC(=O)COc2ccc(C(=O)Nc3ccccc3F)cc2)cc1`, the values for the Activity in data set [1] and in data set [2] were 66% and 70%, respectively.
As to `O=C(COc1ccc(C(=O)Nc2ccccc2F)cc1)NCc1ccc(Cl)cc1`, the Activity is 65% in data set [1] and 40% in data set [2].
For `COc1ccc(CNC(=O)COc2ccc(C(=O)Nc3ccc(Oc4ccc(Br)cc4)cc3)cc2)cc1`, in that order: 37% and 45%.
For `O=C(COc1ccc(C(=O)Nc2cccc(C(F)(F)F)c2)cc1)NCc1ccc(Cl)cc1`, in that order: 46% and 44%.
For `Cc1cccc(C)c1NC(=O)c1ccc(OCC(=O)NCc2ccc(Cl)cc2)cc1` the same measures were 77% and 55%.
For `Cc1cccc(NC(=O)c2ccc(OCC(=O)NCc3ccc(C(F)(F)F)cc3)cc2)c1C`, the Activity in data set [1] was 26%; in data set [2] it was 81%.
For `COc1ccc(CNC(=O)COc2ccc(C(=O)Nc3ccc(F)cc3)cc2)cc1`, the viability at 72 h, 10 µM in data set [5] stood at 86.2%. For the same compound, the Activity is 25% in data set [1], 31% in data set [2], 7.5% in data set [3] and 20.3% in data set [4]. Also, in data set [6], the outcome was Active.
Regarding `O=C(COc1ccc(C(=O)Nc2ccc(Oc3ccc(Br)cc3)cc2)cc1)NCc1ccc(Cl)cc1`, the Activity in data set [1] was determined as 72%; in data set [2], 42%.
Turning to `O=C(COc1ccc(C(=O)Nc2ccc(F)cc2)cc1)NCc1ccccc1Cl`, the Activity in data set [1] is 51%; in data set [2] it was 50%.
For `O=C(COc1ccc(C(=O)Nc2ccccc2F)cc1)NCc1ccccc1Cl`, in that order: 64% and 62%.
For `O=C(COc1ccc(C(=O)Nc2ccccc2)cc1)NCc1ccc(Cl)cc1` the same measures were 83% and 75%.
For `O=C(COc1ccc(C(=O)Nc2ccc(Oc3ccc(Br)cc3)cc2)cc1)NCc1ccccc1Cl`, in that order: 82% and 82%.
In the case of `O=C(COc1ccc(C(=O)Nc2cccc(Cl)c2)cc1)NCc1ccccc1Cl`, the Activity turned out to be 88% in data set [1] and 96% in data set [2].
Take `COc1ccc(CNC(=O)COc2ccc(C(=O)Nc3cccc(Cl)c3)cc2)cc1`: the viability at 72 h, 10 µM in data set [5] stood at 90%. Besides, the Activity is 5% in data set [1], 5% in data set [2], 5.9% in data set [3] and 12.7% in data set [4]. The result in data set [6] was Active.
With `CCc1ccccc1NC(=O)c1ccc(OCC(=O)NCc2ccc(OC)cc2)cc1`, the viability at 72 h, 10 µM in data set [5] was determined as 78%. Further, the Activity in data set [1] was determined as 19%; in data set [2], 20%; in data set [3], 8.3%; in data set [4] it was 8.5%. Further, the outcome in data set [6] was Active.
For `Cc1cccc(NC(=O)c2ccc(OCC(=O)NCc3ccc([N+](=O)[O-])cc3)cc2)c1C`, the Activity in data set [1] worked out at 23%; in data set [2], 144%.
As to `CCc1ccccc1NC(=O)c1ccc(OCC(=O)NCc2ccc(Cl)cc2)cc1`, the viability at 72 h, 10 µM in data set [5] was determined as 31.3%. The Activity in data set [1] was 51%; in data set [2], 36%; in data set [3] it was 19.2%; in data set [4], 139%. Moreover, the result in data set [6] was Active.
For the compound `Cc1cccc(NC(=O)c2ccc(OCC(=O)NCc3ccc4c(c3)OCO4)cc2)c1C`, the Activity in data set [1] came out at 52%; in data set [2] it was 54%.
For `O=C(COc1ccc(C(=O)Nc2ccccc2)cc1)NCc1ccccc1Cl`, in that order: 54% and 48%.
Consider `COc1ccc(CNC(=O)COc2ccc(C(=O)Nc3cccc(C)c3C)cc2)c(OC)c1`, for which the Activity in data set [1] came out at 50%; in data set [2], 17%.
For `Cc1ccc(CNC(=O)COc2ccc(C(=O)Nc3cccc(C)c3C)cc2)cc1`, in that order: 48% and 51%.
As for `O=C(COc1ccc(C(=O)Nc2ccc(F)cc2)cc1)NCc1ccc(Cl)cc1`, the results for the Activity in data set [1] and in data set [2] were 69% and 43%, respectively.
For `Cc1cccc(C)c1NC(=O)c1ccc(OCC(=O)NCc2ccccc2Cl)cc1` the same measures were 53% and 58%.
For `CCc1cccc(NC(=O)c2ccc(OCC(=O)NCc3ccc(OC)cc3)cc2)c1`, the Activity in data set [1] and in data set [2] was 51% in each case.
Regarding `Cc1cccc(NC(=O)c2ccc(OCC(=O)NCc3ccc(Cl)cc3Cl)cc2)c1C`, the Activity in data set [1] came to 52%; in data set [2], 61%.
For `CCc1ccccc1NC(=O)c1ccc(OCC(=O)NCc2ccccc2Cl)cc1`, in that order: 63% and 66%.
For `CCc1cccc(NC(=O)c2ccc(OCC(=O)NCc3ccc(Cl)cc3)cc2)c1`, in that order: 69% and 49%.
For `COc1ccc(CNC(=O)COc2ccc(C(=O)Nc3c(C)cccc3C)cc2)cc1`, in that order: 58% and 62%.
For the compound `Cc1cccc(NC(=O)c2ccc(OCC(=O)NCc3cccc(C(F)(F)F)c3)cc2)c1C`, the Activity in data set [1] worked out at 57%; in data set [2] it was 106%.
For `Cc1cccc(NC(=O)c2ccc(OCC(=O)NCc3ccc(Cl)c(Cl)c3)cc2)c1C`, in that order: 57% and 47%.
